Like-named read-outs stand apart in the source and are kept apart here. Non-standard residues stand in square brackets, D forms with d. Residues, ends and D or L forms follow the SMILES beside them. β3hE = N[C@@H](CCC(=O)O)CC(=O)O; β3hQ = NC(=O)CC[C@H](N)CC(=O)O; β3hD = NC(CC(=O)O)CC(=O)O; β3hS = N[C@@H](CO)CC(=O)O

The record followed here is PMC11289882, “Site-directed allostery perturbation to probe the negative regulation of hypoxia inducible factor-1α” (RSC Chemical Biology, 2024).

The target of one assay is T1, p300–Flu-HIF-1α (Homo sapiens, UniProt Q09472).
T1 construct: from residues 330-420 (used for FA and ITC experiments); GST (N, cleaved yes); made in house; host or cells: p300: E. coli BL21 pLysS (pGEX-4T-1); tracer peptide: solid-phase synthesis
T1 sequence (Q09472 330-420): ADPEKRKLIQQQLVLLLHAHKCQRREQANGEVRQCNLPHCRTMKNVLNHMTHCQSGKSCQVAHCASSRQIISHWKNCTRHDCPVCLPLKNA
The experiment in a line: Fluorescence anisotropy competition against p300–Flu-HIF-1α. In kind it is binding.

The target in assay [1] is T2, p300_330–420 (TAZ1 domain) (Homo sapiens, UniProt Q09472).
T2 construct: from residues 330-420 (used for FA and ITC experiments); GST (N, cleaved yes); made in house; host or cells: E. coli BL21 pLysS (pGEX-4T-1)
T2 sequence (Q09472 330-420): as above
In words: ITC direct titration to p300. The format is binding. Conditions: 35 °C.

The mark [2] stands for this setting: 50 nM p300_330–420, 25 nM Flu-HIF-1α786–826 tracer, 40 mM Na-phosphate, 100 mM NaCl, 1 mM DTT, 0.01% Triton-X, pH 7.4, 10 min at 35 °C, fixed KD = 64 nM for tracer, three repeats, read-out: Kd,app FA competition against p300–Flu-HIF-1α.
[3] abbreviates: 5 µM p300_330–420 in cell, 60 µM ligand in syringe, 40 mM Na-phosphate pH 7.5, 100 mM NaCl, 1 mM DTT, global fit with ternary intermediate model, 68% confidence intervals in brackets, read-out: Direct binding to p300, K d.

As for `CC[C@H](C)[C@H](NC(C)=O)C(=O)N[C@@H](CC(=O)O)CC(=O)N[C@H](C(=O)N[C@@H](CC(=O)O)CC(=O)N[C@@H](Cc1ccccc1)C(=O)N[C@H](C(=O)N[C@@H](CC(=O)O)CC(=O)N[C@@H](CCC(=O)O)C(=O)N[C@@H](CCC(=O)O)C(=O)N[C@H](C(=O)N[C@@H](CC(C)C)C(=O)N[C@@H](CCSC)C(=O)N[C@@H](CO)C(=O)N[C@@H](CC(C)C)C(=O)N[C@H](C(=O)N[C@H](C(=O)N[C@@H](CCC(=O)O)C(=O)N[C@@H](CCSC)C(=O)NCC(=O)N[C@@H](CC(C)C)C(=O)N[C@@H](CC(=O)O)C(=O)N[C@@H](CCCNC(=N)N)C(=O)N[C@H](C(=O)N[C@@H](CCCCN)C(=O)N[C@@H](CCC(=O)O)C(=O)N[C@@H](CC(C)C)C(=O)N1CCC[C@H]1C(=O)N[C@@H](CCC(=O)O)C(=O)N[C@@H](CC(C)C)C(=O)N[C@@H](Cc1c[nH]c2ccccc12)C(=O)N[C@@H](CC(C)C)C(=O)NCC(=O)N[C@@H](CCC(N)=O)C(=O)N[C@@H](CC(N)=O)C(=O)N[C@@H](CCC(=O)O)C(=O)N[C@@H](Cc1ccccc1)C(=O)N[C@@H](CC(=O)O)C(=O)N[C@@H](Cc1ccccc1)C(=O)N[C@@H](CCSC)C(N)=O)[C@@H](C)CC)[C@@H](C)CC)C(C)C)C(C)C)[C@@H](C)CC)[C@@H](C)O` [compound 1] (Ac-I[β3hD]T[β3hD]FI[β3hD]EEVLMSLVIEMGLDRIKELPELWLGQNEFDFM-NH2), the results for the Kd (on p300–Flu-HIF-1α (setting [2]); in assay [1] (setting [3])) were 0.0096 ± 0.0024 µM and 0.019 µM, respectively.

For `CC[C@H](C)[C@H](NC(C)=O)C(=O)N[C@@H](CC(=O)O)C(=O)N[C@H](C(=O)N[C@@H](CC(=O)O)C(=O)N[C@@H](Cc1ccccc1)C(=O)N[C@H](C(=O)N[C@@H](CC(=O)O)C(=O)N[C@@H](CCC(=O)O)C(=O)N[C@@H](CCC(=O)O)CC(=O)N[C@H](C(=O)N[C@@H](CC(C)C)C(=O)N[C@@H](CCSC)C(=O)N[C@@H](CO)CC(=O)N[C@@H](CC(C)C)C(=O)N[C@H](C(=O)N[C@H](C(=O)N[C@@H](CCC(=O)O)CC(=O)N[C@@H](CCSC)C(=O)NCC(=O)N[C@@H](CC(C)C)C(=O)N[C@@H](CC(=O)O)C(=O)N[C@@H](CCCNC(=N)N)C(=O)N[C@H](C(=O)N[C@@H](CCCCN)C(=O)N[C@@H](CCC(=O)O)C(=O)N[C@@H](CC(C)C)C(=O)N1CCC[C@H]1C(=O)N[C@@H](CCC(=O)O)C(=O)N[C@@H](CC(C)C)C(=O)N[C@@H](Cc1c[nH]c2ccccc12)C(=O)N[C@@H](CC(C)C)C(=O)NCC(=O)N[C@@H](CCC(N)=O)C(=O)N[C@@H](CC(N)=O)C(=O)N[C@@H](CCC(=O)O)C(=O)N[C@@H](Cc1ccccc1)C(=O)N[C@@H](CC(=O)O)C(=O)N[C@@H](Cc1ccccc1)C(=O)N[C@@H](CCSC)C(N)=O)[C@@H](C)CC)[C@@H](C)CC)C(C)C)C(C)C)[C@@H](C)CC)[C@@H](C)O` [compound 2] (Ac-IDTDFIDE[β3hE]VLM[β3hS]LVI[β3hE]MGLDRIKELPELWLGQNEFDFM-NH2), the Kd on p300–Flu-HIF-1α (setting [2]) was 0.0049 ± 0.0008 µM; in assay [1] (setting [3]), 0.016 µM. As to `CC[C@H](C)[C@H](NC(=O)[C@@H]1CCCN1C(=O)[C@H](C)NC(=O)[C@H](CC(N)=O)NC(=O)[C@@H](NC(=O)[C@H](CCC(=O)O)NC(=O)[C@H](CS)NC(=O)[C@H](CC(=O)O)NC(=O)[C@H](Cc1ccc(O)cc1)NC(=O)[C@H](CO)NC(=O)[C@@H](NC(=O)[C@H](CC(C)C)NC(=O)[C@H](CCC(N)=O)NC(=O)[C@@H]1CCCN1C(=O)[C@H](CC(C)C)NC(=O)CNC(=O)[C@H](CO)NC(=O)[C@H](CCC(=O)O)NC(=O)[C@H](CC(=O)O)NC(=O)[C@H](CCSC)NC(=O)[C@H](CO)NC(=O)CCCCCNC(=O)c1ccc2c(c1)C(=O)OC21c2ccc(O)cc2Oc2cc(O)ccc21)[C@@H](C)O)C(C)C)C(=O)N[C@@H](CCC(N)=O)C(=O)NCC(=O)N[C@@H](CO)C(=O)N[C@@H](CCCNC(=N)N)C(=O)N[C@@H](CC(N)=O)C(=O)N[C@@H](CC(C)C)C(=O)N[C@@H](CC(C)C)C(=O)N[C@@H](CCC(N)=O)C(=O)NCC(=O)N[C@@H](CCC(=O)O)C(=O)N[C@@H](CCC(=O)O)C(=O)N[C@@H](CC(C)C)C(=O)N[C@@H](CC(C)C)C(=O)N[C@@H](CCCNC(=N)N)C(=O)N[C@@H](C)C(=O)N[C@@H](CC(C)C)C(=O)N[C@@H](CC(=O)O)C(=O)N[C@@H](CCC(N)=O)C(=O)N[C@H](C(=O)N[C@@H](CC(N)=O)C(N)=O)C(C)C` [Flu-HIF-1α], the Kd at p300–Flu-HIF-1α (determined by FA competition with HIF-1α776–826 as competitor (competitor KD 50 ± 8 nM from ITC), 50 nM p300, 25 nM tracer, 35 °C, read-out: KD of the fluorescent tracer for p300) amounted to 0.064 µM. As for `CC[C@H](C)[C@H](NC(=O)[C@@H]1CCCN1C(=O)[C@H](C)NC(=O)[C@H](CC(N)=O)NC(=O)[C@@H](NC(=O)[C@H](CCC(=O)O)NC(=O)[C@H](CS)NC(=O)[C@H](CC(=O)O)NC(=O)[C@H](Cc1ccc(O)cc1)NC(=O)[C@H](CO)NC(=O)[C@@H](NC(=O)[C@H](CC(C)C)NC(=O)[C@H](CCC(N)=O)NC(=O)[C@@H]1CCCN1C(=O)[C@H](CC(C)C)NC(=O)CNC(=O)[C@H](CO)NC(=O)[C@H](CCC(=O)O)NC(=O)[C@H](CC(=O)O)NC(=O)[C@H](CCSC)NC(=O)[C@H](CO)NC(=O)[C@H](CCC(N)=O)NC(=O)CNC(=O)[C@H](CC(C)C)NC(=O)[C@H](CC(C)C)NC(=O)[C@H](CCCNC(=N)N)NC(=O)[C@H](CS)NC(=O)[C@H](C)NC(=O)[C@H](CC(C)C)NC(=O)[C@H](CC(=O)O)NC(=O)[C@H](CO)NC(C)=O)[C@@H](C)O)C(C)C)C(=O)N[C@@H](CCC(N)=O)C(=O)NCC(=O)N[C@@H](CO)C(=O)N[C@@H](CCCNC(=N)N)C(=O)N[C@@H](CC(N)=O)C(=O)N[C@@H](CC(C)C)C(=O)N[C@@H](CC(C)C)C(=O)N[C@@H](CCC(N)=O)C(=O)NCC(=O)N[C@@H](CCC(=O)O)C(=O)N[C@@H](CCC(=O)O)C(=O)N[C@@H](CC(C)C)C(=O)N[C@@H](CC(C)C)C(=O)N[C@@H](CCCNC(=N)N)C(=O)N[C@@H](C)C(=O)N[C@@H](CC(C)C)C(=O)N[C@@H](CC(=O)O)C(=O)N[C@@H](CCC(N)=O)C(=O)N[C@H](C(=O)N[C@@H](CC(N)=O)C(N)=O)C(C)C` [HIF-1α776–826], the Kd on p300–Flu-HIF-1α (setting [2]) was found to be 0.057 ± 0.004 µM; in assay [1] (5 µM protein in cell, 60 µM peptide in syringe, 40 mM Na-phosphate, 100 mM NaCl, 1 mM DTT pH 7.4, average of three independent measurements, read-out: KD of HIF-1α776-826 binding to p300), 0.05 ± 0.008 µM. As to `CC[C@H](C)[C@H](NC(C)=O)C(=O)N[C@@H](CC(=O)O)C(=O)N[C@H](C(=O)N[C@@H](CC(=O)O)C(=O)N[C@@H](Cc1ccccc1)C(=O)N[C@H](C(=O)N[C@@H](CC(=O)O)C(=O)N[C@@H](CCC(=O)O)C(=O)N[C@@H](CCC(=O)O)C(=O)N[C@H](C(=O)N[C@@H](CC(C)C)C(=O)N[C@@H](CCSC)C(=O)N[C@@H](CO)C(=O)N[C@@H](CC(C)C)C(=O)N[C@H](C(=O)N[C@H](C(=O)N[C@@H](CCC(=O)O)C(=O)N[C@@H](CCSC)C(=O)NCC(=O)N[C@@H](CC(C)C)C(=O)N[C@@H](CC(=O)O)C(=O)N[C@@H](CCCNC(=N)N)C(=O)N[C@H](C(=O)N[C@@H](CCCCN)C(=O)N[C@@H](CCC(=O)O)C(=O)N[C@@H](CC(C)C)C(=O)N1CCC[C@H]1C(=O)N[C@@H](CCC(=O)O)C(=O)N[C@@H](CC(C)C)C(=O)N[C@@H](Cc1c[nH]c2ccccc12)C(=O)N[C@@H](CC(C)C)C(=O)NCC(=O)N[C@@H](CCC(N)=O)CC(=O)N[C@@H](CC(N)=O)C(=O)N[C@@H](CCC(=O)O)CC(=O)N[C@@H](Cc1ccccc1)C(=O)N[C@@H](CC(=O)O)CC(=O)N[C@@H](Cc1ccccc1)C(=O)N[C@@H](CCSC)C(N)=O)[C@@H](C)CC)[C@@H](C)CC)C(C)C)C(C)C)[C@@H](C)CC)[C@@H](C)O` [compound 4] (Ac-IDTDFIDEEVLMSLVIEMGLDRIKELPELWLG[β3hQ]N[β3hE]F[β3hD]FM-NH2), the Kd on p300–Flu-HIF-1α (setting [2]) was 0.0017 ± 0.0007 µM; in assay [1] (setting [3]), 0.017 µM.

On to “Ac-IDTDFIDEEVLMSLVIEMGLDRIKELPELWLGQNEFDFM-NH2 [CITED2_218–256]”, for which the Kd at p300–Flu-HIF-1α (as other FA competition values, average and standard deviation of two individual titrations (Fig. 2 and Fig. S11), SD, read-out: Kd,app FA competition against p300–Flu-HIF-1α) worked out at 0.002 ± 0.0009 µM; in assay [1] (setting [3]), 0.011 µM.

As to `CC[C@H](C)[C@H](NC(C)=O)C(=O)N[C@@H](CC(=O)O)C(=O)N[C@H](C(=O)N[C@@H](CC(=O)O)C(=O)N[C@@H](Cc1ccccc1)C(=O)N[C@H](C(=O)N[C@@H](CC(=O)O)C(=O)N[C@@H](CCC(=O)O)C(=O)N[C@@H](CCC(=O)O)C(=O)N[C@H](C(=O)N[C@@H](CC(C)C)C(=O)N[C@@H](CCSC)C(=O)N[C@@H](CO)C(=O)N[C@@H](CC(C)C)C(=O)N[C@H](C(=O)N[C@H](C(=O)N[C@@H](CCC(=O)O)C(=O)N[C@@H](CCSC)C(=O)NCC(=O)N[C@@H](CC(C)C)C(=O)N[C@@H](CC(=O)O)CC(=O)N[C@@H](CCCNC(=N)N)C(=O)N[C@H](C(=O)N[C@@H](CCCCN)C(=O)N[C@@H](CCC(=O)O)CC(=O)N[C@@H](CC(C)C)C(=O)N1CCC[C@H]1C(=O)N[C@@H](CCC(=O)O)CC(=O)N[C@@H](CC(C)C)C(=O)N[C@@H](Cc1c[nH]c2ccccc12)C(=O)N[C@@H](CC(C)C)C(=O)NCC(=O)N[C@@H](CCC(N)=O)C(=O)N[C@@H](CC(N)=O)C(=O)N[C@@H](CCC(=O)O)C(=O)N[C@@H](Cc1ccccc1)C(=O)N[C@@H](CC(=O)O)C(=O)N[C@@H](Cc1ccccc1)C(=O)N[C@@H](CCSC)C(N)=O)[C@@H](C)CC)[C@@H](C)CC)C(C)C)C(C)C)[C@@H](C)CC)[C@@H](C)O` [3a] (Ac-IDTDFIDEEVLMSLVIEMGL[β3hD]RIK[β3hE]LP[β3hE]LWLGQNEFDFM-NH2), the Kd at p300–Flu-HIF-1α (setting [2]) is greater than 0.6 µM; in assay [1] (setting [3]), 0.675 µM.
